Legend:
[1] = ABTS free-radical scavenging antioxidant assay; details: absorbance at 734 nm
Experimental: ABTS free-radical scavenging assay was used to test the antioxidant capacity of compounds Y1 to Y4. The method can be found in many articles. 7 mM ABTS and 2.45 mM ammonium persulfate were blended and stored in a dark place 16 hours, and then diluted by 80% ethanol to obtain the working solution which gave an absorbance of 0.69 at 734 nm. The working solution and compounds were mixed and allowed to react for ten minutes, and then measured the absorbance at 734 nm (AI) was measured using spectrophotometer. L-ascorbic acid and 80% ethanol was used as a positive and blank control, respectively. The A0 value was the blank absorbance. The antioxidant rate (%) = (A0-AI)/A0 * 100%

[2] = target: mushroom tyrosinase (Agaricus bisporus, UniProt C7FF04); test: Diphenolase activity of mushroom tyrosinase (L-DOPA substrate); format: biochemical; details: for Inhibition type: Lineweaver-Burk plots; for Inhibition type / KIS (inhibitor bonding with enzyme-substrate complex) / K IS (Table 1) / Inhibitory mechanisms: diphenolase; for KIS (inhibitor bonding with enzyme-substrate complex) / K IS (Table 1): L-DOPA; for KIS (inhibitor bonding with enzyme-substrate complex): secondary plot of intercepts; for K IS (Table 1): unit not given; for Inhibitory mechanisms: residual activity vs enzyme concentration
Experimental: L-Tyr and L-DOPA were used as the substrate to test the monophenolase and diphenolase activities of tyrosinase, respectively. The reaction system (3 ml) contained 1.1 mM L-Tyr or 0.5 mM L-DOPA, 25 mM PBS buffer (pH 6.8) and different concentrations of the inhbitors. For monophenolase and diphenolase activities, the final concentration of tyrosinase was 33.3μg/ml and 6μg/ml, respectively. The increased optical density with the oxidation of the substrates at 475 nm (the absorption coefficient was 3700 M^−1cm^−1) within a certain time were measured by DU800 spectrophotometer. […] The Michaelis-Menten constant Km of tyrosinase was determined by Lineweaver-Burk plot with different concentrations of L-DOPA as substrate and the inhibition constants KI and KIS were determined by the secondary plots of the apparent Km/Vm or 1/Vm versus the concentration of the inhibitors. The inhibition mechanism was reflected by the […] with various concentrations of mushroom tyrosinase.

[3] = target: T1, tyrosinase (Agaricus bisporus, UniProt C7FF04); test: Fluorescence quenching of tyrosinase; format: binding, mushroom; details: 0.3 mg/ml tyrosinase, excitation 280 nm, inhibitor 10 to 70 μM
T1 construct: purchased Sigma Chemical Co. (St. Louis, MO, USA); host or cells: mushroom (natural source)
Experimental: Fluorescence quenching means the decrease of fluorescence intensity between the fluorescent molecules and solute molecules. This method was usually used to study the interaction between conformation of protein molecules and small molecules. Cary Eclipse fluorescence spectrophotometer was used to record the fluorescence intensities with an excitation wavelength of 280 nm and emission slit widths of 5 nm. […] In this study, the inhibitor was added in 0.3 mg/ml tyrosinase solution to detect the fluorescence intensity changes and the final concentrations of inhibitor range from 10 to 70 μM.
Fluorescence quenching can be divided into static quenching and dynamic quenching. Dynamic quenching is a process, which has energy or electron transfer, while the static quenching process will generate complexes without fluorescence. The quenching rate between the fluorescent molecules and quenching agents followed the Stem.Volmer curve equation [43]: F0/F=1+KSV[Q]
In the formula, F0 is the intensity of fluorescence without quenching agent, F is the fluorescence intensity after adding quencher, Ksv (L/mol) represents the relationship of dynamic equilibrium between biological macromolecules and fluorescence quencher molecules after diffusing and colliding, and [Q] is the concentration of quencher. From Fig 4D, the Ksv of Y1, Y2 and Y3 was determined to be 94437, 7160983 and 159186 L/mol, respectively.

mushroom tyrosinase, sequence (C7FF04 1-392): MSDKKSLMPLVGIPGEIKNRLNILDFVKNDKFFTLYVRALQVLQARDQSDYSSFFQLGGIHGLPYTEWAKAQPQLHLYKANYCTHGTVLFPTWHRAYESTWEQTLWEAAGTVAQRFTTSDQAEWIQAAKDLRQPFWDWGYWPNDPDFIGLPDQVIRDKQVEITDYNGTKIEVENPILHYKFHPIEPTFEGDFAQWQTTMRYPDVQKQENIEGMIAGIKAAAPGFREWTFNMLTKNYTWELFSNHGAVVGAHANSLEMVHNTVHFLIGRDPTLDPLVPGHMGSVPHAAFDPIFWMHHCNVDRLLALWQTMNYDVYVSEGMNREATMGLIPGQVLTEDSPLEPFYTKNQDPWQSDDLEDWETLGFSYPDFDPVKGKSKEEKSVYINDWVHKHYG
T1 sequence (C7FF04 1-392 limits assumed): as the sequence (C7FF04 1-392) above

Inhibition type [2]	KIS (inhibitor bonding with enzyme-substrate complex) [2] [µM]	K IS (Table 1) [2]	Inhibitory mechanisms [2]	Ksv (Stern-Volmer quenching constant) [3] [L/mol]	Compound	antioxidant capacity rank order [1]	antityrosinase activity (diphenolase screen) ([2]; L-DOPA substrate)
					NNc1nnc(S)n1N [AHMZ, 4-Amino-3-hydrazino-5-mercapto-1,2,4-triazole, reference compound]	Y1 > Y2 > Y3 > Y4 > Vc > AHMZ	
Mixed	4	4	Reversible	94437	Nn1c(S)nnc1N/N=C\c1cccc(F)c1 [Compound Y1, (Z)-4-amino-5-(2-(3-fluorobenzylidene)hydrazinyl)-4H-1,2,4-triazole-3-thiol]	Y1 > Y2 > Y3 > Y4 > Vc > AHMZ	
Mixed	27.8	28	Reversible		Nn1c(S)nnc1N/N=C\c1cccc(O)c1 [Compound Y2, (Z)-3-((2-(4-amino-5-mercapto-4H-1,2,4-triazol-3-yl)hydrazono)methyl)phenol]	Y1 > Y2 > Y3 > Y4 > Vc > AHMZ	
Mixed	21.04	21.04	Reversible	159186	Nn1c(S)nnc1N/N=C\c1ccccc1O [Compound Y3, (Z)-2-((2-(4-amino-5-mercapto-4H-1,2,4-triazol-3-yl)hydrazono)methyl)phenol]	Y1 > Y2 > Y3 > Y4 > Vc > AHMZ	
					Oc1cccc(/C=N\Nc2nnc(S)n2/N=C/c2cccc(O)c2)c1 [Compound Y4, 3-((Z)-(2-(4-(((E)-3-hydroxybenzylidene)amino)-5-mercapto-4H-1,2,4-triazol-3-yl)hydrazono)methyl)phenol]	Y1 > Y2 > Y3 > Y4 > Vc > AHMZ	almost do not have antityrosinase activity
					O=C1O[C@H]([C@@H](O)CO)C(O)=C1O [Vc, L-ascorbic acid, reference compound]	Y1 > Y2 > Y3 > Y4 > Vc > AHMZ	

Source: paper PMC4589318, “Synthesis of Triazole Schiff’s Base Derivatives and Their Inhibitory Kinetics on Tyrosinase Activity” (PLoS ONE, 2015)
